Test results as given in patent publication EP0847397B1, “WATER-SOLUBLE C-RING ANALOGUES OF 20 (S)-CAMPTOTHECIN” (DR. REDDY'S RESEARCH FOUNDATION, priority 1996, dated 1997).
Converted amounts (≈) assume the structure as drawn.

Columns and labels:
HCC 2998 = experiment: NCI in vitro 60 human tumor cell line assay; format: cell-based; conditions: Homo sapiens, HCC 2998, 48 h, read-out: Total Growth Inhibition (TGI)
Description: (§3) Each test compound was screened against a battery of 60 human cell lines obtained from eight organs. In a typical procedure, the cell suspensions that were diluted according to the particular cell type and the expected target cell density (5000-40,000 cells per well based on cell growth characteristics) were added into 96-well microtiter plates. Inoculates were allowed a preincubation period of 24h at 37°C. for stabilization. Dilutions at twice the intended test concentrations were added at time zero in 100-µl aliquots to microtiter plate wells. Usually test compounds were evaluated at five 10-fold dilutions. The highest well concentration used in the test is 10^-4M. The cells are then incubated in the presence of drug (the test compound) for further 48h in 5% CO2 atmosphere and 100% humidity. At the end of this time, the adherent cells are fixed to the plate by means of trichloroacetic acid, and after a number of washes, the cell layer is treated with the protein stain Sulforhodamine B. The optical density which is proportional to protein mass, is then read by automated spectrophotometric plate readers at a wavelength of 515 nm. Readings are transferred to a microcomputer and final reports are generated using especially developed software.

HT 29 = experiment: NCI in vitro 60 human tumor cell line assay; format: cell-based; conditions: Homo sapiens, HT-29, 48 h, read-out: Total Growth Inhibition (TGI)
Description: as §3

Pharmacokinetics at MTD = format: in vivo, Swiss albino mice; conditions: mouse, ip, intraperitoneal, plasma; for AUC(0-t): DMSO:water (50:50), read-out: AUC0-1
Description: 3. Pharmacokinetics at MTD:
All studies were carried out in Swiss albino mice in the weight range 35-40 g. The animals were fasted overnight prior to dosage of the drug and were fed 3 hours after dosing. The animals were dosed intraperitonially as a solution in DMSO:water (50:50; v/v). Blood samples were drawn from orbital sinus at 1, 2, 4, 6 and 8 hours after administration of the dose into heparinized tubes, centrifuged at 13000 RPM for 10 min. Plasma samples were separated and analyzed by HPLC. To 50 µl of the sample, 100 µl of chilled acidified methanol was added and mixed to precipitate proteins. The sample was centrifuged at 13,000 RPM for 10 min. 100 µl of supernatant was made up to 200 µl with methanol:water (50:50; v/v) and 100 µl was injected on HPLC. Peak area of the drug was used for quantification. Calibration, control and recovery samples were prepared by spiking 50 µl of blank plasma with known amounts of the drug and processed in the same manner as the samples. (J. Natl. Cancer Inst., 1996; 88:817-824).

DU-145 = experiment: In vitro activity after 1 hour exposure (Sulforhodamine B); format: cell-based; conditions: Homo sapiens; DU-145, 1 hour exposure then 48 hours drug-free
Description: (§1) 6. In vitro activity after 1 hour exposure:
(§2) Grow the cells in 15 ml of Complete Medium (RPM1-1640 with 10% Fetal bovine serum and 0.2% NaHCO3) for 3-5 days to obtain a cell number of 10^6 cells/flask. The medium is removed and the attached cells are washed with Phosphate Buffered Saline (PBS). 1 ml of 0.1% Trypsin-EDTA is added and incubated for 5 min at 37°C. Tap the flasks gently and add 5 ml of complete medium. Remove cell suspension and centrifuge at 2000 rpm for 5 min. Discard the supernatant and suspend the pellet in 5 ml of complete medium. Count the cell number in a haemocytometer. Dilute the cell suspension to 10,000 cells/100 µl in complete medium. Plate out 100 µl of cell suspension in each of 96 well microtitre plate and incubate for 24 hrs at 37°C. and 5% CO2. Terminate the reference blank (plated out separately) with 25 µl of 50% cold Trichloroacetic acid (TCA). Incubate for 1 hour at 4°C. Wash the plate (five times) with deionized water. Air dry and preserve the plate at 4°C. for determination of T0 value. Prepare suitable dilution of the test compound in complete medium and add 100 µl to each well to maintain the final concentration ranging between 10^-4M and 10^-8M. Incubate for 1 hr at 37°C. and 5% CO2. Centrifuge the microtitre plate at 1000 rpm for 5 min. Remove the supernatant. Wash the cells twice with 100 µl of PBS to remove the traces of test compound. Add 200 µl of complete medium to each well and incubate for 48 hours at 37°C. and 5% CO2. Terminate the cell growth with the addition of 50 µl of 50% cold TCA. Incubate the plate for 1 hr at 4°C. Wash the plates with deionized water (five times) and air dry. Add 100 µl of Sulforhodamine B solution (0.4% in 1% acetic acid) to each well. Keep at room temperature for 15 minutes. Wash (five times) with 1% acetic acid and air dry. Add 100 µl of 10mM Trizma base (Sigma), shake gently on plate shaker for 15 minutes and read the optical density at 490 nm in Spectrophotometric plate reader. (as per the protocol followed by the U.S. National Cancer Institute.

HOP-62 = experiment: as above; format: cell-based; conditions: Homo sapiens; HOP-62, 1 hour exposure then 48 hours drug-free
Description: as §1, §2

UACC-62 = experiment: as above; format: cell-based; conditions: Homo sapiens; UACC-62, 1 hour exposure then 48 hours drug-free
Description: as §1, §2

OVCAR-8 = experiment: as above; format: cell-based; conditions: Homo sapiens; OVCAR-8, 1 hour exposure then 48 hours drug-free
Description: as §1, §2

SF-268 = experiment: as above; format: cell-based; conditions: Homo sapiens
Description: as §1, §2

MCF-7/ADR = experiment: as above; format: cell-based; conditions: Homo sapiens, NCI/ADR-RES, 1 hour exposure then 48 hours drug-free
Description: as §1, §2

ACHN = experiment: as above; format: cell-based; conditions: Homo sapiens, 1 hour exposure then 48 hours drug-free
Description: as §1, §2

[1] = Solubility by routine method; format: physicochemical; conditions: deionized water, 37°C
Description: 5. Solubility by routine method:
Compound was suspended in 5 ml of deionized water and heated to 37°C. for 10 min. Then, the solution was filtered and the filtrate was evaporated to drying using methanol and the solid residue was weighed.

HCT 15 = experiment: NCI in vitro 60 human tumor cell line assay; format: cell-based; conditions: HCT-15, 48 h, read-out: Total Growth Inhibition (TGI)
Description: as §3

[2] = Solubility by HPLC method; format: physicochemical; conditions: aqueous buffer, 0.1M sodium acetate buffer pH 5.0, 24 hours, room temperature
Description: 4. Solubility by HPLC method:
Excess of compound was soaked in 0.5 ml of 0.1M sodium acetate buffer at pH 5.0 for 24 hours at room temperature. The solution was filtered through 0.45 micron PVDF syringe filter (Gelman Sciences). The filtrate was injected into HPLC at different volumes (10 & 20 µl). Chromatograms were recorded. Responses recorded were extrapolated from the calibration curve and the solubility of the compound was calculated. (J. Med. Chem., 1995; 38: 400)

SK OV3 = experiment: NCI in vitro 60 human tumor cell line assay; format: cell-based; conditions: SK-OV-3, 48 h, read-out: Total Growth Inhibition (TGI)
Description: Each test compound was screened against a battery of 60 human cell lines obtained from eight organs. In a typical procedure, the cell suspensions that were diluted according to the particular cell type and the expected target cell density (5000-40,000 cells per well based on cell growth characteristics) were added into 96-well microtiter plates. Inoculates were allowed a preincubation period of 24h at 37°C. for stabilization. Dilutions at twice the intended test concentrations were added at time zero in 100-µl aliquots to microtiter plate wells. Usually test compounds were evaluated at five 10-fold dilutions. The highest well concentration used in the test is 10^-4M. The cells are then incubated in the presence of drug (the test compound) for further 48h in 5% CO2 atmosphere and 100% humidity. At the end of this time, the adherent cells are fixed to the plate by means of trichloroacetic acid, and after a number of washes, the cell layer is treated with the protein stain Sulforhodamine B. The optical density which is proportional to protein mass, is then read by automated spectrophotometric plate readers at a wavelength of 515 nm.

H 460 = experiment: NCI in vitro 60 human tumor cell line assay; format: cell-based; conditions: Homo sapiens, NCI-H460, 48 h, read-out: Total Growth Inhibition (TGI)
Description: as §3

[3] = MTD in Swiss albino mice (single dose); conditions: mouse, in vivo, 14 days observation
Description: 1. MTD in Swiss albino mice:
Each Swiss Albino mouse is injected with a single does of the test compound on a day designated as Day 1: Doses that were tested are 400, 200, 100, 50, 25, 12.5, 8.3, 6.25 and 3.13 mg/kg body weight. […] (As per the protocol followed by the U.S. National Cancer Institute)

Compound `CC[C@@]1(O)C(=O)OCc2c1cc1n(c2=O)C(OCCO)c2cc3ccccc3nc2-1` (some centres unmarked) [Example 26, 5-(2'-Hydroxyethoxy)camptothecin] has an IC (TGI) (HCC 2998) of 10.5 µM, an IC (TGI) (HT 29) of 46 µM and an AUC(0-t) (Pharmacokinetics at MTD) of 562 ± 41.8 µM·h. It also gave a Cmax (Pharmacokinetics at MTD) of 264 ± 21.9 µM, a Tmax (Pharmacokinetics at MTD) of 1 h and a half-life (Pharmacokinetics at MTD) of 110 ± 18 min. The k el (Pharmacokinetics at MTD) was 0.000106 s⁻¹, the GI50 (DU-145) was 50 µM and the GI50 (HOP-62) was greater than 100000 nM. For the same compound, the GI50 (UACC-62) was 0.075 µM, the GI50 (OVCAR-8) was greater than 100 µM and the GI50 (SF-268) was greater than 100 µM. It also gave a GI50 (MCF-7/ADR) greater than 100 µM, a GI50 (ACHN) greater than 100 µM and a solubility at 10 min [1] of 6000 µg/mL (≈ 14.7 mM). It also gave an IC (TGI) (HCT 15) of 36.3 µM, a solubility at 24 h [2] of 800 µg/mL (≈ 1.96 mM) and an IC (TGI) (SK OV3) of 3.8 µM. It also gave an IC (TGI) (H 460) of 1 µM, an MTD at 336 h ([3]; intravenous) of 25 to 50 mg/kg and an MTD at 336 h ([3]; ip, intraperitoneal) of 200 mg/kg.

With `CC[C@@]1(O)C(=O)OCc2c1cc1n(c2=O)C(OCC(F)(F)F)c2cc3cc(O)ccc3nc2-1` (some centres unmarked) [Example 27, 10-Hydroxy-5-trifluoroethoxycamptothecin] the IC (TGI) (HCC 2998) was 7.67 µM, the IC (TGI) (HT 29) was 2.41 µM and the AUC(0-t) (Pharmacokinetics at MTD) was 23.1 ± 2.7 µM·h. For the same compound, the Cmax (Pharmacokinetics at MTD) was 7.4 ± 0.8 µM, the Tmax (Pharmacokinetics at MTD) was 1.33 ± 0.6 h and the half-life (Pharmacokinetics at MTD) was 143 ± 12 min. It also gave a k el (Pharmacokinetics at MTD) of 8.06e-05 s⁻¹, a GI50 (DU-145) of 0.35 µM and a GI50 (HOP-62) of 2000 nM. For the same compound, the GI50 (UACC-62) was 9 µM, the GI50 (OVCAR-8) was 75 µM and the GI50 (SF-268) was greater than 100 µM. It also gave a GI50 (MCF-7/ADR) of 60 µM, a GI50 (ACHN) of 8 µM and a solubility at 10 min [1] of 2000 to 3000 µg/mL (≈ 4.33 to 6.49 mM). The IC (TGI) (HCT 15) was 20 µM, the solubility at 24 h [2] was 500 µg/mL (≈ 1.08 mM) and the IC (TGI) (H 460) was 5.09 µM. For the same compound, the MTD at 336 h ([3]; intravenous) was 200 mg/kg and the MTD at 336 h ([3]; ip, intraperitoneal) was 400 mg/kg.
